Experimental data reported in patent US10155259B2 (Merck Sharp & Dohme B.V., priority 2011, dated 2018).

molecular target: T1, human FSH receptor (Homo sapiens, UniProt P23945); experiment: Antagonistic activity of compounds at the human FSH receptor expressed in CHO cells (CRE-luciferase reporter); assay type: cell-based; conditions: CHO cells stably transfected with human FSH receptor and CRE/luciferase reporter; together with 49 μM recFSH; 4 hours incubation; 1% DMSO; read-out: IC50 (concentration of test compound causing half-maximal inhibition of the maximally attainable inhibition of the luciferase stimulation)
T1 construct: expressed in transfected cells; host or cells: CHO cells, stably transfected; cotransfected with CRE-luciferase reporter
T1 sequence (P23945 18-695): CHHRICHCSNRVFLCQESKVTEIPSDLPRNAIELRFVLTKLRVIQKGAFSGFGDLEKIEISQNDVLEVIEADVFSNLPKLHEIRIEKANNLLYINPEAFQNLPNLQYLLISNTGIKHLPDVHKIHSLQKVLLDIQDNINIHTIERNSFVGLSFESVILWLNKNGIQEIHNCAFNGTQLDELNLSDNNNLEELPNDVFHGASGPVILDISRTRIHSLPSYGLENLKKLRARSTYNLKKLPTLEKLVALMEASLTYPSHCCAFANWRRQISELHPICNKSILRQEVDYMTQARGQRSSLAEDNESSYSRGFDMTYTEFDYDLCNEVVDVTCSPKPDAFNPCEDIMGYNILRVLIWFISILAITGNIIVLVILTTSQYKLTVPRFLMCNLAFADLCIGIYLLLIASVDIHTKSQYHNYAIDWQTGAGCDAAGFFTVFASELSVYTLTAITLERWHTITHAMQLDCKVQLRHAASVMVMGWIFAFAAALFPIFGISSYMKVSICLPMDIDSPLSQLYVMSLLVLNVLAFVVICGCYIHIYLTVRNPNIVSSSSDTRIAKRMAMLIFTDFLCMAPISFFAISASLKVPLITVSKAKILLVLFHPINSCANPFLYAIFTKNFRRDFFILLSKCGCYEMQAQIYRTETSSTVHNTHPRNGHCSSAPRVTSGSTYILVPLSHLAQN
Summary of the method: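 Stably transfected CHO cells with a CRE-driven firefly luciferase reporter were co-incubated 4 h at 37 °C with compound (0.316 nM–10.0 μM, duplicate) plus […] recFSH (80% maximal stimulation), 1% DMSO final. Luminescence read after lysis; IC50 and efficacy from inhibition of FSH-induced luciferase signal.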

Structure (SMILES)	IC50
COc1cc2c(cc1-c1cccnc1OC)-c1cc(C(=O)N[C@@H](CO)Cc3c[nH]c4ccccc34)c(-c3cccc(F)c3)n1CC2 [Example 53, 3-(3-fluorophenyl)-N—((R)-1-hydroxy-3-(1H-indol-3-yl)propan-2-yl)-8-methoxy-9-(2-methoxypyridin-3-yl)-5,6-dihydropyrrolo[2,1-a]isoquinoline-2-carboxamide]	< 100 nM
COc1cc2c(cc1OC)-c1cc(C(=O)N[C@@H](CO)Cc3c[nH]c4ccccc34)c(-c3cc(C)cc(C)c3)n1CC2 [Example 4, (R)-3-(3,5-dimethylphenyl)-N-(1-hydroxy-3-(1H-indol-3-yl)propan-2-yl)-8,9-dimethoxy-5,6-dihydropyrrolo[2,1-a]isoquinoline-2-carboxamide]	100 to 1000 nM
COc1cc2c(cc1OC1CCCC1)-c1cc(C(=O)N[C@@H](CO)Cc3c[nH]c4ccccc34)c(-c3cccc(F)c3)n1CC2 [Example 35]	< 100 nM
COc1cc2c(cc1OC(C)C)-c1cc(C(=O)NC(CO)C3(c4c[nH]c5ccccc45)CC3)c(-c3cccc(F)c3)n1CC2 (stereo not shown) [Example 3]	100 to 1000 nM
